# Legend:
# [1] = target: T1, hM3 (human Muscarinic receptor subtype 3) (Homo sapiens, UniProt P20309); experiment: Human M3 calcium mobilization FLIPR assay; type: cell-based; conditions: CHO cells expressing hM3, Ca2+ release
# T1 construct: expressed in transfected cells; host or cells: CHO cells (Chinese hamster ovary cells, ATCC)
# Experimental: (§1) Biological Evaluation Human M1, Rat M1, Human M3 and Human M5 Calcium Mobilization FLIPR™ Assay
# (§2) The compound activity in the present invention (EC50 or IC50) was measured using a 384 plate-based imaging assay that monitors drug induced intracellular Ca^2+ release in whole cells. Activation of hM1 (human Muscarinic receptor subtype 1, gene bank access NM_000738), rM1 (rat Muscarinic receptor subtype 1, gene bank access NM_080773), hM3 (human Muscarinic receptor subtype 3, gene bank access NM_000740NM_000740) and hM5 (human Muscarinic receptor subtype 5, gene bank access NM_0121258), receptors expressed in CHO cells (Chinese hamster ovary cells, ATCC) was quantified in a Molecular Devices FLIPR II™ instrument as an increase in fluorescent signal. Inhibition of hM3 and hM5 by compounds was determined by the decrease in fluorescent signal in response to 20 nM carbachol activation.
# (§3) CHO cells were plated in 384-black polylysine coated plate (Costar) at 8000 cells/well/50 μl for 24 hours or 4000 cells/well for 48 hours in a humidified incubator (5% CO2 and 37° C.) in DMEM/F12 medium without selection agent. Prior to the experiment the cell culture medium was removed from the plates by inversion. A loading solution of 30 μl of Hank's balanced salt solution, 10 mM Hepes and 2.5 mM Probenicid at Ph 7.4 (Cat no. 311-520-VL, Wisent) with 2 μM calcium indicator dye (FLUO-3AM, Molecular Probes F14202) was added to each well. Plates were incubated at 37° C. for 60 minutes prior to start the experiment. The incubation was terminated by washing the cells four times in assay buffer, leaving a residual 25 μl buffer per well. Cell plates were then transferred to the FLIPR, ready for compound additions.
# (§4) The day of experiment, carbachol and compounds were diluted in three-fold concentration range (10 points serial dilution) for addition by FLIPR instrument. For all calcium assays, a baseline reading was taken for 30 seconds followed by the addition of 12.5 μl (25 μl for hM1 and rM1) of compounds, resulting in a total well volume of 37.5 μl (50 μl for hM1 and rM1). Data were collected every 1.6 seconds for 300 seconds. For hM3 and hM5 an additional 12.5 μl of carbachol (20 nM final) was added at 300 seconds. After this addition of carbachol (producing a final volume of 50 μl), the FLIPR continued to collect data every 2 seconds for 240 seconds. The fluorescence emission was read using filter 1 (emission 520-545 nm) by the FLIPR on board CCD camera.
# (§5) Calcium mobilization output data were calculated as the maximal relative fluorescence unit (RFU) minus the minal value for both compound and agonist reading frame (except for hM1 and rM1 using only the maximal RFU). Data were analyzed using sigmoidal fits of a non-linear curve-fitting program (XLfit version 5.0.6 from ID Business Solutions Limited, Guildford, UK). All EC50 and IC50 values are reported as arithmetic means±standard error of mean of ‘n’ independent experiments.
# [2] = target: T2, hM5 (human Muscarinic receptor subtype 5) (Homo sapiens, UniProt P08912); experiment: Human M5 calcium mobilization FLIPR assay; type: cell-based; conditions: CHO cells expressing hM5, Ca2+ release
# T2 construct: expressed in transfected cells; host or cells: CHO cells (Chinese hamster ovary cells, ATCC)
# T2 sequence (P08912 1-532): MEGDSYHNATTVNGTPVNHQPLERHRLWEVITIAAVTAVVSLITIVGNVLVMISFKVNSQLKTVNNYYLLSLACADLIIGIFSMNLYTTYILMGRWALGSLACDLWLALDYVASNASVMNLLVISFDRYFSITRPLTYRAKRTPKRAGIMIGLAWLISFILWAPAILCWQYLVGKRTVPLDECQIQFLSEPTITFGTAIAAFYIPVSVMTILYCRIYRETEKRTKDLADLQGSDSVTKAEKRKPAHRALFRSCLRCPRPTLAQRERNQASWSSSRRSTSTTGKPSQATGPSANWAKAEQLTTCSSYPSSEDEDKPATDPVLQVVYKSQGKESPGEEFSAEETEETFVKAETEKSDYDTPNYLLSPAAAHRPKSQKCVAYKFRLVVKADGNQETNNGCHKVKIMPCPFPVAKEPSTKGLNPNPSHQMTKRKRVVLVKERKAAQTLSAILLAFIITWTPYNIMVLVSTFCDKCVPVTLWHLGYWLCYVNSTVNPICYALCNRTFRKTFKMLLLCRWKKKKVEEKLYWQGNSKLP
# Experimental: as §1, §2, §3, §4, §5
# T1 sequence (P20309 whole entry): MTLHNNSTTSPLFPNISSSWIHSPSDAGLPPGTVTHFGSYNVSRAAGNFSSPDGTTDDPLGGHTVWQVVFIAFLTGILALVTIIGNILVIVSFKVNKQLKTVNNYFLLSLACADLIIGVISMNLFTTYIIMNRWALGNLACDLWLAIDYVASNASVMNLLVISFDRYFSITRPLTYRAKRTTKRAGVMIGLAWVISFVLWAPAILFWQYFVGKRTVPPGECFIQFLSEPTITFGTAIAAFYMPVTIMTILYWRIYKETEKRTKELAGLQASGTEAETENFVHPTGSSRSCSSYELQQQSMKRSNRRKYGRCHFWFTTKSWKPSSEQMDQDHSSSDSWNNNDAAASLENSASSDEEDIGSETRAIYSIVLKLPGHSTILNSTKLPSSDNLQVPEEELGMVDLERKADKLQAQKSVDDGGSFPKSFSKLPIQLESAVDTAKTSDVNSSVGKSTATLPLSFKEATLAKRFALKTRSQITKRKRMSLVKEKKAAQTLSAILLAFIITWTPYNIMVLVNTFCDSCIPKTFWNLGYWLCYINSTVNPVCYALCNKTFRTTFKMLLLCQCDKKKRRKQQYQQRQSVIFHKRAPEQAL
SMILES,EC50 [1],EC50 [2]
COc1ccccc1C(=O)N1CCC(N2CCC(N3C(=O)N[C@@H]4CCCC[C@H]43)CC2)CC1,> 40 µM,> 40 µM
CCOC(=O)N1CC[C@H](N2CCC(N3C(=O)N[C@H]4CCCC[C@@H]43)CC2)C1,> 40 µM,3.9 µM
CC(C)OC(=O)N1CCC(N2CCC(N3C(=O)N[C@@H]4CCCC[C@@H]43)CC2)CC1,> 40 µM,0.072 µM
CN1C(=O)N(C2CCN(C3CCN(C(=O)C4CC4)CC3)CC2)[C@H]2CCCC[C@@H]21,> 40 µM,> 40 µM
CC(C)OC(=O)N1CCC(N2CCC(N3C(=O)C[C@H]4CCCC[C@@H]43)CC2)CC1,> 40 µM,> 40 µM
CC(C)OC(=O)N1CCC(N2CCC(N3C(=O)N[C@H]4CCCC[C@@H]43)CC2)CC1,> 40 µM,0.036 µM

# More lines, now with the values ahead:
EC50 [1],EC50 [2],SMILES
5.4 µM,2.4 µM,O=C1CCCN1CCC(=O)N1CCC(N2CCC(N3C(=O)N[C@@H]4CCCC[C@H]43)CC2)CC1
2.5 µM,0.22 µM,CCOC(=O)N1CCC(N2CCC(N3C(=O)N[C@H]4CCCC[C@@H]43)CC2)CC1
> 40 µM,1.6 µM,O=C1CCCN1CCC(=O)N1CCC(N2CCC(N3C(=O)N[C@H]4CCCC[C@@H]43)CC2)CC1
> 40 µM,> 40 µM,O=C(C1CC1)N1CCC(N2CCC(N3C(=O)N[C@@H]4CCCC[C@H]43)CC2)CC1
> 40 µM,> 40 µM,O=C(C1CCCC1)N1CCC(N2CCC(N3C(=O)N[C@H]4CCCC[C@@H]43)CC2)CC1

# Reference: patent publication US7956069B2, “Compounds” (AstraZeneca AB, priority 2006, dated 2011)
